The text below walks through data of patent US9018219B2, “Fused aminodihydropyrimidine derivative” (Shionogi & Co., Ltd., priority 2010, dated 2015).

For series [1], the target named is T1, human ether-a-go-go related gene (hERG) channel (Homo sapiens, UniProt Q12809).
T1 construct: expressed in transfected cells; host or cells: HEK293
The experiment in a line: hERG test. Type of series: cell-based. The settings on record: HEK293 cells expressing hERG channel, whole cell patch clamp, 10 minutes, concentration not given. An excerpt: For the purpose of assessing risk of an electrocardiogram QT interval prolongation, effects on delayed rectifier K+ current (IKr), which plays an important role in the ventricular repolarization process, of the compound of the present invention was studied using HEK293 cells expressing human ether-a-go-go related gene (hERG) channel.
A cell was retained at a membrane potential of −80 mV by whole cell patch clamp method using an automated patch clamp system (PatchXpress 7000A, Axon Instruments Inc.) and leakage potential at −50 mV was generated. IKr induced by depolarization pulse stimulation at +40 mV for 2 seconds and, further, repolarization pulse stimulation at −50 mV for 2 seconds was recorded. […] From the recording IKr, an absolute value of the tail peak current was measured based on the current value at the resting membrane potential using an analysis software (DataXpress ver.1, Molecular Devices Corporation). Further, the % inhibition relative to the tail peak current before application of the compound of the present invention was calculated, and compared with the vehicle-applied group (0.1% dimethyl sulfoxide solution) to assess influence of the compound of the present invention on IKr.

Another series has as its target CYP3A4 (Homo sapiens, UniProt P08684). The experiment in a line: CYP inhibition test (CYP3A4). It is filed as in vitro ADME. Also noted: enzyme, pooled human hepatic microsome 0.2 mg protein/mL; from tissue. Conditions: pooled human hepatic microsome 0.2 mg protein/mL, 15 minutes, 37° C.; read-out: IC50 CYP3A4 (terfenedine hydroxylation). An excerpt:
(§1) Using commercially available pooled human hepatic microsome, and employing, as markers, 7-ethoxyresorufin O-deethylation (CYP1A2), tolbutamide methyl-hydroxylation (CYP2C9), mephenyloin 4′-hydroxylation (CYP2C19), dextromethorphan O-demethylation (CYP2D6), and terfenedine hydroxylation (CYP3A4) as typical substrate metabolism reactions of human main five CYP enzyme forms (CYP1A2, 2C9, 2C19, 2D6, 3A4), an inhibitory degree of each metabolite production amount by a compound of the present invention was assessed. […] After the centrifugation at 3000 rpm for 15 minutes, resorufin (CYP1A2 metabolite) in the supernatant was quantified by a multi-label counter and hydroxytolbutamide (CYP2C9 metabolite), 4′-hydroxymephenyloin (CYP2C19 metabolite), dextrorphan (CYP2D6 metabolite), and terfenadine alcohol metabolite (CYP3A4 metabolite) were quantified by LC/MS/MS. Addition of only DMSO being a solvent dissolving a compound to a reaction system was adopted as a control (100%), remaining activity (%) was calculated and IC50 was calculated by reverse presumption by a logistic model using a concentration and an inhibition rate.

Another series concerns the target T2, CYP2D6 (Homo sapiens, UniProt P10635).
T2 construct: enzyme, pooled human hepatic microsome 0.2 mg protein/mL; from tissue
Put plainly: CYP inhibition test (CYP2D6). Conditions: pooled human hepatic microsome 0.2 mg protein/mL, 15 minutes, 37° C.; read-out: IC50 CYP2D6 (dextromethorphan O-demethylation). Type of series: in vitro ADME.
From the text: as §1

In the next series the target is T3, CYP1A2 (Homo sapiens, UniProt P05177).
T3 construct: enzyme, pooled human hepatic microsome 0.2 mg protein/mL; from tissue
T3 sequence (P05177 1-516): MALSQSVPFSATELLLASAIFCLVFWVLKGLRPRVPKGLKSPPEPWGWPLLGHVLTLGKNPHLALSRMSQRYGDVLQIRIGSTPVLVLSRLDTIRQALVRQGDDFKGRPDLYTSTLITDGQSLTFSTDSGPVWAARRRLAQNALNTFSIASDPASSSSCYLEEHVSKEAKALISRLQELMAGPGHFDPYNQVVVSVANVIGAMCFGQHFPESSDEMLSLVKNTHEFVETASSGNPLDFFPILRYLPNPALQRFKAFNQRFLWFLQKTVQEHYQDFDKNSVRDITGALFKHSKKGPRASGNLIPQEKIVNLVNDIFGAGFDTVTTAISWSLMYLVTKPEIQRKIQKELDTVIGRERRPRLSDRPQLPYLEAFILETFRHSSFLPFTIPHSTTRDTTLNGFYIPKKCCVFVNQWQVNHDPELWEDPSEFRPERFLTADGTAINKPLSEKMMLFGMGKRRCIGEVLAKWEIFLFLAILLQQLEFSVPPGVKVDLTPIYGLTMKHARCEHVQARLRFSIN
The experiment in a line: CYP inhibition test (CYP1A2). Type of series: in vitro ADME. Conditions: pooled human hepatic microsome 0.2 mg protein/mL, 15 minutes, 37° C.; read-out: IC50 CYP1A2 (7-ethoxyresorufin O-deethylation).
From the text: as §1

T1 sequence (Q12809 whole entry): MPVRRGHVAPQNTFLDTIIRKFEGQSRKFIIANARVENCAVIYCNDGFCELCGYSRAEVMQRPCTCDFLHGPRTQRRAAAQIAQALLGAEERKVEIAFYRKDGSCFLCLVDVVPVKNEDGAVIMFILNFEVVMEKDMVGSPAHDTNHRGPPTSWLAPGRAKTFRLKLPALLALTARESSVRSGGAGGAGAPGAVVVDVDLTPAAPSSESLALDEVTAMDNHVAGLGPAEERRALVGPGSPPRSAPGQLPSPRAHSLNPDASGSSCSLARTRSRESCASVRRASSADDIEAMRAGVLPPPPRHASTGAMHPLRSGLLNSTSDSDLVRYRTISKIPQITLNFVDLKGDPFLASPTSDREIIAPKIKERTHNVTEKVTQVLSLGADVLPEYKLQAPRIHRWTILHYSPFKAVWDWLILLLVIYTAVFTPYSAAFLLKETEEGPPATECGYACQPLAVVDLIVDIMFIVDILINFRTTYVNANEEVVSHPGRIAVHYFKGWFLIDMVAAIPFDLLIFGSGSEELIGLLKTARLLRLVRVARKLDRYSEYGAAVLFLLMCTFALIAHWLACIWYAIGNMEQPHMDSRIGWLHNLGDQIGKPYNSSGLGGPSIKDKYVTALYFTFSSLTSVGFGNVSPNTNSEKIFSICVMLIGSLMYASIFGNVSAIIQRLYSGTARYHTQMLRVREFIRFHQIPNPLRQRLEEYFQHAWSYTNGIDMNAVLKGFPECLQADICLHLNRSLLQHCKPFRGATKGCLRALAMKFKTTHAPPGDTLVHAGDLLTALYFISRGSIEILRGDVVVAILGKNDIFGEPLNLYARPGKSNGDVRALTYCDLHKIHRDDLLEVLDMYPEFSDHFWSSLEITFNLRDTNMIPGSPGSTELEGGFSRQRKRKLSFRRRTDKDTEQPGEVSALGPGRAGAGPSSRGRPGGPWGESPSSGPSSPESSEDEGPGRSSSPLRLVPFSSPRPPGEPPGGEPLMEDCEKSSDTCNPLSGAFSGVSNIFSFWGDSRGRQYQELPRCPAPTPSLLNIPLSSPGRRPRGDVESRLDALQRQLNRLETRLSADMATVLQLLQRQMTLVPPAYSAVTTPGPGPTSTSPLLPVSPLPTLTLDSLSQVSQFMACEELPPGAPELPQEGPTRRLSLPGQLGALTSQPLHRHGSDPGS
Chain of CYP3A4 (P08684 whole entry): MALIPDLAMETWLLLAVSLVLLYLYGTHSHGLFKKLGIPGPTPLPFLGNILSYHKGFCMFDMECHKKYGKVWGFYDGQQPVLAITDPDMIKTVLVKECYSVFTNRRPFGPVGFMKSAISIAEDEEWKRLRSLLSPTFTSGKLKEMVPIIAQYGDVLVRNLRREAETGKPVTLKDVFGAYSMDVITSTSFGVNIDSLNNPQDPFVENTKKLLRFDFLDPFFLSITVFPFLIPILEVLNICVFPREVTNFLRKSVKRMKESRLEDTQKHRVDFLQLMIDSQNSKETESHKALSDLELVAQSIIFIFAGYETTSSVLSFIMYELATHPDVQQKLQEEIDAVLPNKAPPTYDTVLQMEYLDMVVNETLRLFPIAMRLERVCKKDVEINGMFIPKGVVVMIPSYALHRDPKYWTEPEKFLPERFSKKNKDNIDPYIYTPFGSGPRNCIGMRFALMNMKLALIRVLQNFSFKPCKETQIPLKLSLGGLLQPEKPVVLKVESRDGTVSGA
T2 sequence (P10635 whole entry): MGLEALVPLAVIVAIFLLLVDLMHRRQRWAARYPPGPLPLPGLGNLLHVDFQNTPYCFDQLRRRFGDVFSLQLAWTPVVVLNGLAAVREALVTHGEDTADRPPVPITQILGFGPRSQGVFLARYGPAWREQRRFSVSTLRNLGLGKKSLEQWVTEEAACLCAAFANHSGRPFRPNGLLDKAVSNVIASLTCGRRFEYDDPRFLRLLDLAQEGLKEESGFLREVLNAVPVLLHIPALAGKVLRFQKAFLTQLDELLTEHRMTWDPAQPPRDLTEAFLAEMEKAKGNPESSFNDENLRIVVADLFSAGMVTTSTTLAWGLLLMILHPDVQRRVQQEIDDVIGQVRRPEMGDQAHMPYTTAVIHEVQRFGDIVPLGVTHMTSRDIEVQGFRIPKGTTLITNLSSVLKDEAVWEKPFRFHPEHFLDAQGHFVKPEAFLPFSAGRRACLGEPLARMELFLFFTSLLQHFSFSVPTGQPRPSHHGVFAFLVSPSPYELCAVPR

Take `C[C@@]1(c2cc(-c3cccnc3F)ccc2F)Cc2nccn2C(N)=N1` [Compound I-2]: the “% inhibition of IKr tail peak current” value in series [1] amounted to 12.3%. Moreover, the IC50 at CYP3A4, at CYP2D6 and on CYP1A2 was over 20 µM throughout.
